The target of one data set is T1, zfERα (Danio rerio, UniProt P57717).
T1 sequence (P57717 1-569): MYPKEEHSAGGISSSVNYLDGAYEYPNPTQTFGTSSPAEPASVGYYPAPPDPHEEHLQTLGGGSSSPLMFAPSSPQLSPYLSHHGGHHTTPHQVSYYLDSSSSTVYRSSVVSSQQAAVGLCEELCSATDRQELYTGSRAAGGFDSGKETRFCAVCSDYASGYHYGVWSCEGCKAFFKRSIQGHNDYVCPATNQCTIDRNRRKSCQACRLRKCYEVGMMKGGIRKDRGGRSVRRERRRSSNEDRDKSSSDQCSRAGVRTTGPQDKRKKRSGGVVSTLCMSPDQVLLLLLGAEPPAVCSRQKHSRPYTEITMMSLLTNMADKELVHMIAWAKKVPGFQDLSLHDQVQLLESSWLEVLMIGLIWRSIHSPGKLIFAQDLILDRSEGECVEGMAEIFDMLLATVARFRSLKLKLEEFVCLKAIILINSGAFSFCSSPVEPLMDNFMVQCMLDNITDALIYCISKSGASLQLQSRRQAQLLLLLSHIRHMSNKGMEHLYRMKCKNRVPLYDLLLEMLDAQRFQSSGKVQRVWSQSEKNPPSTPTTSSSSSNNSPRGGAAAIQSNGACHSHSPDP
Kind of data set: cyp19a1b-luciferase reporter gene assay in U251-MG glial cells transfected with zfERα. The conditions noted are these: 10–6 M, 24 h, U251-MG cells with ERα, vs DMSO. In kind it is cell-based, zebrafish. Details: containing the coding regions of each zebrafish estrogen receptor cDNA; expressed in transfected cells; host or cells: human U251-MG glial cells (ER-negative). The method, then: The medium was also supplemented with 20 U/mL penicillin, 20 μg/mL streptomycin, and 50 ng/mL amphotericin B (Gibco). For transfections, cells were plated in 24-well plates at a density of 25,000 cells/ml in the same medium, except the fetal calf serum was charcoal-treated and used at a concentration of 2.5%. Cells were transfected with 25 ng/well either the vector expression containing or not the zfERα, zfERβ1, zfERβ2 coding region and cytomegalovirus [CMV]−β-Galactosidase, and 150 ng/well of the cyp19a1b-Luciferase reporter plasmid, using JetPEI as a transfection reagent (Polyplus Transfection, Illkirch, France). […] Luciferase activity was measured 24 h later (Luciferase assay system, Promega, Madison, WI, USA). β-Galactosidase activity was used to normalize transfection efficiency. Chemicals were tested in at least 3 independent experiments and each experiment was performed in triplicate.

For a further data set, the system named is cyp19a1b transcripts. Put plainly: cyp19a1b in situ hybridization on 7-dpf brain sections. Format: in vivo, zebrafish. The conditions noted are these: 1 μM, 7-dpf larvae; for distribution of cyp19a1b transcripts in the whole brain: transverse sections. On the procedure:
(§1) For subsequent RT-qPCR and in situ hybridization analysis with wild type zebrafish, groups of 80 embryos (for each condition) were placed after 1 day post-fertilization (1-dpf) in a large glass flask containing 100 ml of embryonic medium (Mouriec et al., [2009b]). […] The embryos were held in the exposure flasks until 7-dpf larva stage. […] Embryos were maintained in the exposure dishes until 4-dpf larva stage. During the treatment period, 100% of the exposure medium was renewed every 24 h (for both wild type and transgenic zebrafish).
Larvae used for in situ hybridization experiments originated from the same exposition groups than RT-qPCR experiments. After exposure to the different conditions, 10 wild type 7-dpf larvae (for each treatment) were fixed overnight at 4°C in 4% paraformaldehyde, before embedding in parrafin. Serial thin transverse sections ([…]) were placed on cryofrost slides and subjected to in situ hybridization experiments. Sense and antisense digoxigenin-labeled riboprobes for the cyp19a1b gene were transcribed using the Digoxigenin RNA labeling kit in accordance with the manufacturer's instructions (Roche, Mannheim, Germany) and as previously described (Menuet et al., [2005]). The brain sections were processed for in situ hybridization using stringent conditions as previously published (D'Amico et al., [2011], [2013]). After NBT/BCIP revelation, sections were counterstained with DAPI, and mounted in a drop of vectashield (Vector Laboratories). All sections were photographed with an Olympus PROVIS AX70 microscope with a digital camera (Olympus SP71), or a Nikon multizoom AZ100 macroscope with a DS-Ri1 color camera.

The test system of another data set is cyp19a1b gene. Put plainly: RT-qPCR of cyp19a1b transcripts in wild type 7-dpf larva brains. The conditions noted are these: for fold induction at 1 µM: Danio rerio, read-out: cyp19a1b gene expression, fold induction relative to DMSO, 1 μM, 7-dpf larvae brains, six independent exposures, Figure 1B. The method, then:
as §1
Tissue was sonicated (10 s, 3 times) in 250 μL Trizol Reagent (Invitrogen) and RNA extractions were carried out according to the manufacturer's protocol. Reverse transcription was carried out by incubating 2μg total RNA with 1μg of random primer oligonucleotides, 2.5ṁM dNTPs, and 50 U MMLV-RT (Promega) in the appropriate buffer for 10 min at 65°C and 60 min at 37°C. Quantitative Polymerase chain reaction (qPCR) experiments were performed in an iCycler thermocycler coupled to the MyiQ detector (Bio-Rad. Hercules, CA, USA) using iQ SYBR-Green Supermix (Bio-Rad) according to the manufacturer's protocol. The following primers were used: ef1 (fw) 5′-[…]-3′; ef1 (rev) 5′-[…]-3′; cyp19a1b (AroB; fw) 5′-[…] For each condition, the RT-PCR experiment was run in triplicates. Expression levels of ef1 mRNA were used to normalize cyp19a1b expression levels. Melting curve and PCR efficiency analyses were performed to confirm correct amplification. For quantification of PCR results, the threshold cycle (Ct) was determined for each reaction. Ct values for each gene of interest were normalized with the housekeeping gene ef1, using the ΔΔCt method. Normalized values were used to calculate the degree of induction or inhibition expressed as a “fold difference” compared to normalized control values.
(Quantitative PCR measures a nucleic acid by following its amplification.)

The test system of a further data set is cyp19a1b promoter. Kind of data set: EASZY assay: GFP fluorescence in brain of live cyp19a1b-GFP transgenic 4-dpf larvae. In kind it is in vivo, zebrafish. To be noted: 4-dpf cyp19a1b-GFP larvae, exposure 2 hpf to 4 dpf; for fold induction at 1 µM: Danio rerio, read-out: GFP fluorescence, fold induction above DMSO control. The method, then: Quantification of fluorescence in transgenic cyp19a1b-GFP zebrafish larva brain was performed according to Brion et al. ([2012]). In this assay, estrogenic activity is detected in living 4 days-old larvae (treated or not with an estrogen mimic compound) from the observation of the reporter gene fluorescence in the radial glial cells. […] All photographs were taken using the same parameters: only the head was photographed under a X10 objective, with a 134 ms exposure time and maximal intensity. Photographs were analyzed using the Axiovision Imaging software and fluorescence quantification was performed using the ImageJ software (http://rsbweb.nih.gov/ij/). For each picture, the integrated density was measured, i.e., the sum of the gray-values of all the pixels within the region of interest. A gray-value of 290 was defined as background value. For each micrograph the fluorescence fold induction of fluorescence was calculated comparing the integrated pixel density with the average fluorescence induction obtained in the control group.

For the compound `CC(c1ccccc1)(c1ccc(O)cc1)c1ccc(O)cc1` [BPAP, 4,4′-(1-phenylethylidene)bisphenol], the “cyp19a1b-luciferase reporter gene induction” value at zfERα is given as “did not stimulate”. For the same compound, in the data set with cyp19a1b transcripts, the “cyp19a1b transcripts in the nucleus recessus posterioris (nrp), caudal hypothalamus” value is “increase in cyp19a1b transcripts in the nrp region (Figure 5H) albeit to a lower levels” and the “distribution of cyp19a1b transcripts in the whole brain” value (“distribution of cyp19a1b transcripts” below) is “induces expression of cyp19a1b transcripts in only a few (xeno) estrogen-sensitive cyp19a1b expression sites”. Moreover, the “cyp19a1b gene expression, fold induction relative to DMSO” value in the data set with cyp19a1b gene (1 μM, 7-dpf larvae brains, six independent exposures, Figure 1B) is reported as “no effect”. Further, the “GFP fluorescence, fold induction above DMSO control” value with cyp19a1b promoter (1 μM) is given as “did not affect GFP fluorescence signal”.
Take `O=S(=O)(c1ccc(O)cc1)c1ccc(O)cc1` [BPS, bis-(4-hydroxyphenyl)sulfone]: the “cyp19a1b-luciferase reporter gene induction” value at zfERα was “did not stimulate”. In addition, the “distribution of cyp19a1b transcripts” value in the data set with cyp19a1b transcripts was “identical to EE2- and BPA-treated animals”. The fold induction at 1 µM was approximately 41 in the data set with cyp19a1b gene and 6 with cyp19a1b promoter.
`Oc1ccc(C(c2ccc(O)cc2)(C(F)(F)F)C(F)(F)F)cc1` [BPAF, 2,2-bis(4-hydroxylphenyl)hexafluoropropane]: the “cyp19a1b-luciferase reporter gene induction” value at zfERα is “significant stimulation”. In addition, the “distribution of cyp19a1b transcripts” value in the data set with cyp19a1b transcripts is “identical to EE2- and BPA-treated animals”. Also, the fold induction at 1 µM in the data set on cyp19a1b gene is approximately 43; in the data set on cyp19a1b promoter, 14.

For the origin of these results see PMC4805609, “Estrogenic Effects of Several BPA Analogs in the Developing Zebrafish Brain” (Frontiers in Neuroscience, 2016).
